Experimental data published in PubChem BioAssay AID1259426 (Fisher Drug Discovery Resource Center, 2018).
“And” between values parts separate entries of the source, which are not always exact repeats. Equal values may be shown once. The source made the active and inactive calls.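 How the source made its calls: active means EC50 under a set limit in control cells lacking the mosquito receptor, marking a fluorescence artifact; inactive means the rest.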

Molecular target: HEK293 Galpha15/GCaMP6s without NPYLR7, calcium fluorescence
Assay: nonspecific activation in parental Galpha15/GCaMP6s cells – cell-based, HEK293 lacking NPYLR7, counter-screen for mosquito NPYLR7 agonist project, dose response (AID 1259426);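 further: potency for a rise in fluorescence over baseline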

Structure (SMILES)	EC50
COc1ccc(C(=O)C=Cc2cc(OC)c(O)c(OC)c2)cc1F	5.86 µM
COc1ccc(S(=O)(=O)NCC2CCCN(C(=O)CSc3ccccc3)C2)cc1 (centres undefined)	> 20 µM (inactive)
CCN(CC)c1ccc(/C=C2\SC(=S)N(CCS(=O)(=O)O)C2=O)cc1	0.039 µM
CSc1nc(N)c2ncn([C@@H]3O[C@H](COP(=O)(O)OP(=O)(O)OP(=O)(O)O)[C@H](O)C3O)c2n1 (some centres undefined)	0.401 µM
CCOC(=O)N1CCN(c2ccc(/C=C(\C#N)c3nc4ccccc4n3C)o2)CC1	> 20 µM (inactive)
COc1ccccc1CCNC(=O)c1ccc(Cn2c(C)nc3ccccc32)o1	> 20 µM (inactive)
O=c1oc2c(CN3CCN(CCO)CC3)c(O)ccc2cc1-c1nc2ccccc2s1	< 0.039 µM
OCCN(CCO)c1nc(N2CCCCC2)c2nc(N(CCO)CCO)nc(N3CCCCC3)c2n1	3.58 µM and 1.94 µM
CC1CC2(C)Oc3ccccc3C3OCC1(CO)C(C)C32 (centres undefined)	> 20 µM (inactive)
O=C1Nc2ccccc2C1C=NN1CCOCC1 (centres undefined)	> 20 µM (inactive)
COc1cc(C=C2C=c3c(O)cccc3=C2O)cc(Cl)c1O	0.524 µM
O=C(COc1ccccc1)N1CCCC(CNS(=O)(=O)c2cccs2)C1 (centres undefined)	> 20 µM (inactive)
O=C1OC2(c3cc(Br)c(O)cc3Oc3c2cc(Br)c(O)[c]3[Hg])c2ccccc21 (centres undefined)	< 0.039 µM
CCOc1ccc(/C=C2N=C(/C=C/c3ccccc3)OC/2=O)cc1	> 20 µM (inactive)
Cc1ccc(CN(Cc2ccc(F)cc2)C(=O)CNCCN2CCOCC2)s1	> 20 µM (inactive)
Oc1ccc(-c2onc3ccc(Cl)cc23)cc1	> 20 µM (inactive)
CC(C)NC(=O)C(C)N1CCc2onc(-c3ccc(C(F)(F)F)cc3)c2C1 (centres undefined)	8.58 µM
COc1ccc2c(c1)OCC(C=C(C#N)S(=O)(=O)c1ccc(Br)cc1)=C2	> 20 µM (inactive)
Fc1cc(F)cc(C2C=C(c3ccco3)Nc3ncnn32)c1 (centres undefined)	8.31 µM
FC(F)(F)c1cc(-c2cccs2)nc2ncnn12	18.3 µM
COc1ccc(-n2ccnc2-c2ccc(C#CC(C)(C)O)cc2)cn1	> 20 µM (inactive)
COc1ccc(OC)c(CCNc2nc3cnc(-c4cc(OC)c(OC)c(OC)c4)cc3n2C)c1	> 20 µM (inactive)
Cc1cc(C)c2cc3c(cc2n1)CCN3CC(O)CO (centres undefined)	2.78 µM
O=C(O)CN1C(=O)/C(=C\c2ccc(O)cc2)SC1=S	13.3 µM
O=C(O)CN1C(=O)/C(=C/c2cc(Br)c(O)c(Br)c2)SC1=S	0.289 µM
CCN(CC)c1ccc2c(-c3ccccc3C(=O)O)c3ccc(=[N+](CC)CC)cc-3oc2c1	3.62 µM

Structure (SMILES)	EC50
O=C(C1=NN(c2ccccc2)C2C(=O)N(c3ccccc3)C(=O)C12)c1ccccc1 (centres undefined)	> 20 µM (inactive)
CCCCC(CC)CN=C(N)NC(N)=NCCCCCCN=C(N)NC(N)=NCC(CC)CCCC (centres undefined)	> 20 µM (inactive)
COc1ccc(N2CCN(c3cc(C(F)(F)F)nc(SCc4cccc(C(=O)NCc5ccccn5)c4)n3)CC2)cc1	> 20 µM (inactive)
CN1C(=CC=C2C(=O)Oc3ccccc3C2=O)C(C)(C)c2ccccc21	1.98 µM
O=[N+]([O-])c1ccc(-n2nc3ccc4nonc4c3n2)cc1	> 20 µM (inactive)
O=c1nc2n3ccc(-c4ccncc4)cc3ncc-2s1	18.3 µM
CCCCCn1c(=O)c2c(nc3n2CCN3c2cc(C)cc(C)c2)n(C)c1=O	> 20 µM (inactive)
CC(C)C(=O)Nc1sc2c(c1-c1nc3ccccc3s1)CCN(C(C)C)C2	> 20 µM (inactive)
N#CC(C#N)=C1C=C2C=C(N3CCc4ccccc4C3)CCC2CC1 (centres undefined)	> 20 µM (inactive)
O=C(Cc1ccc2c(c1)CCC2)NCC1CCN(c2ccccc2)C1 (centres undefined)	> 20 µM (inactive)
N#Cc1cccc(C(=O)N2CCN(C(c3ccccc3)c3ccc(Br)cc3)CC2)c1 (centres undefined)	> 20 µM (inactive)
CC(C)NC[C@@H](O)c1ccc(O)c(O)c1	1.37 µM
N#CC(C#N)=C1C=C2C=C(N3CCCC3)CCC2CC1 (centres undefined)	< 17.7 µM
N#CC1C(=N)Oc2cc(O)ccc2C1c1ccncc1 (centres undefined)	7.22 µM
N#C/C(=C\c1ccc(O)c(O)c1)C(=O)Nc1ccccc1	> 20 µM (inactive)
CN(Cc1ccccc1)c1cc(Oc2cccc(Cl)c2)ncn1	> 20 µM (inactive)
Cc1cccc(C2=N/C(=C\c3cc4cc5c6c(c4oc3=O)CCCN6CCC5)C(=O)O2)c1	0.219 µM
CCN(CC)Cc1c(O)cc(C)c2c1O/C(=C\c1cc3ccccc3o1)C2=O	9.1 µM
CC(C)C(C(=O)O)N1C(=O)/C(=C/c2ccc(N(C)C)cc2)SC1=S (centres undefined)	12 µM
Nc1c2c(nc3sc4c(c13)CCCC4)CCCCC2	> 20 µM (inactive)
COc1ccc(/C=C2\Oc3c(ccc4c3CN(C3CCS(=O)(=O)C3)CO4)C2=O)cc1 (centres undefined)	8.35 µM
COc1cc(/C=C2\SC(=S)N(C(C)C(=O)O)C2=O)ccc1O (centres undefined)	3.02 µM
CCN1C(=Cc2ccc3cc(C)ccc3[n+]2CC)Sc2ccccc21	0.911 µM
COc1cc(-c2nc3n(n2)C(c2ccc(O)cc2)C(C(N)=O)=C(C)N3)cc(OC)c1OC (centres undefined)	> 20 µM (inactive)
CN(Cc1cnc2ccccc2n1)C(=O)C1CC2(CCNCC2)CN1 (centres undefined)	> 20 µM (inactive)
COc1cc(OC)c(OC)cc1/C=C1/SC(=S)N(CC(=O)O)C1=O	5.82 µM

Structure (SMILES)	EC50
O=C1C(=Cc2ccc(OC(F)F)cc2OC(F)F)Oc2cc(O)ccc21	> 20 µM (inactive)
Clc1cccc2ccc(CN3CCn4cncc4C3)nc12	19.2 µM
CCC(C)[n+]1c(C)cc(C=C2Sc3ccccc3N2CC)cc1C (centres undefined)	3.73 µM
CCc1ccc(/C=C2\Oc3c(ccc4c3CN(C3CCS(=O)(=O)C3)CO4)C2=O)cc1 (centres undefined)	10.6 µM
O=C(O)CSc1ccc2c3c(cccc13)C(=O)c1ccccc1-2	0.294 µM
Cc1cc(O)c(CN2CCCC2)c2c1C(=O)/C(=C/c1cc3ccccc3o1)O2	> 20 µM (inactive)
COc1ccc2oc(=O)c(-c3nnc(Nc4cc(Cl)ccc4OC)s3)cc2c1	> 20 µM (inactive)
Cc1[nH]c(/C=C2\C(=O)Nc3ccccc32)c(C)c1CCC(=O)O	< 0.039 µM
CC(C)c1nc(NC(=O)c2[nH]ncc2Br)n(C)n1	1.5 µM
COc1cc(C=CC(=O)c2ccc3c(c2)OCCO3)cc(Br)c1O	0.151 µM
O=C(O)CCN1C(=O)/C(=C/c2ccc(O)cc2)SC1=S	2.69 µM
C=CCN1C(=O)C(Cc2ccc(OC)cc2)S/C1=N/N=C\c1cccs1 (centres undefined)	> 20 µM (inactive)
COc1ccc(-c2cccc(-c3ccc(NC(=O)c4oc5ccccc5c4C)cc3)n2)cc1	> 20 µM (inactive)
CC1=CC(C)C(C(=O)O)C(C(=O)O)C1 (centres undefined)	> 20 µM (inactive)
Nc1nc(Cl)nc2c1ncn2[C@@H]1O[C@H](CO)[C@@H](O)[C@H]1O	1.15 µM
O=C(O)c1csc(CSc2nnc(Cc3ccccc3)n2-c2cccc(C(F)(F)F)c2)n1	> 20 µM (inactive)
N#CC1C(=N)Oc2cc(O)ccc2C1c1ccc(Cl)cc1Cl (centres undefined)	11.9 µM
C=CCNc1ccc2c3c(cccc13)C(=O)N(c1ccccc1)C2=O	0.0583 µM
O=C1c2cccc3c(NCC(O)CCl)ccc(c23)C(=O)N1c1ccccc1 (centres undefined)	< 0.039 µM
C=CCN1C=CC(=CC=C(C#N)C#N)C=C1	2.17 µM
CCC(CO)[n+]1c(C)cc(C=C2Sc3ccccc3N2CC)cc1C (centres undefined)	1.86 µM
O=C(c1snc2c(=O)n(Cc3ccccc3)c(=O)[nH]c12)N1CCSCC1	> 20 µM (inactive)
CCOC(=O)N1CCN(c2ccc(/C=C(\C#N)c3nc4ccccc4[nH]3)o2)CC1	> 20 µM (inactive)
COc1ccc(/C=C2\Oc3c(ccc4c3CN(Cc3ccncc3)CO4)C2=O)cc1	8.8 µM
N#CC1C(=N)SC(=N)C(C#N)C1c1ccc(Cl)cc1Cl (centres undefined)	7.76 µM
Cc1cc(O)c(CN2CCN(C)CC2)c2c1C(=O)/C(=C/c1cccs1)O2	16.8 µM

Structure (SMILES)	EC50
O=C1CCCC2Nc3ncnc(Cl)c3OC12 (centres undefined)	6.38 µM
CCN1C(=Cc2cc(C)[n+](CCOC)c(C)c2)Sc2ccccc21	17.6 µM
Cc1ccc(OCCNC(=O)N2CCN(S(=O)(=O)c3ccccc3Cl)CC2)c(C)c1	> 20 µM (inactive)
O=c1oc2c(CN3CC4CC(C3)c3cccc(=O)n3C4)c(O)ccc2cc1-c1nc2ccccc2s1 (centres undefined)	13.4 µM
COc1ccc(C2=NN(C(=O)CN3CCOCC3)C(c3nc4ccccc4[nH]3)C2)cc1 (centres undefined)	> 20 µM (inactive)
O=C1/C(=C/c2cc3ccccc3o2)Oc2cc(O)ccc21	> 20 µM (inactive)
CCN1CCN(C2=CC3=CC(=C(C#N)C#N)CCC3CC2)CC1 (centres undefined)	< 0.039 µM
O=C1/C(=C/c2cc3ccccc3o2)Oc2c1ccc(O)c2CN1CCN(CCO)CC1	1.94 µM
CCN(CC)c1ccc(/C=C2/SC(=S)N(CC(=O)O)C2=O)cc1	0.355 µM
CC(=NNc1ncnc2sc(C)c(C)c12)c1ccccn1	inactive
COC(=O)c1cnc(/C=C/c2cc(C)c(O)c(C)c2)s1	> 20 µM (inactive)
Cc1cc2nc3c(=O)[nH]c(=O)nc-3n(CC(O)C(O)C(O)CO)c2cc1C (centres undefined)	< 0.039 µM
Cc1ccc(N2C(=O)NC(=O)/C(=C\c3cccs3)C2=O)cc1	> 20 µM (inactive)
CC(C)C(=O)Nc1sc2c(c1-c1nc3ccccc3s1)CCN(C)C2	> 20 µM (inactive)
O=c1oc2cc(O)ccc2cc1-c1nc2ccccc2o1	4.91 µM
Cc1cc2nc3c(=O)[nH]c(=O)nc-3n(C[C@H](O)[C@H](O)[C@H](O)CO)c2cc1C	0.508 µM
CCOC(=O)c1cc(O)c(C(=O)OCC)s1	> 20 µM (inactive)
CCOC(=O)c1ccc(N=c2oc3cc(O)ccc3cc2-c2nc3ccccc3[nH]2)cc1	0.204 µM
Cc1ccc(Nc2nc(Nc3cccc(F)c3)nc3nccnc23)c(C)c1	> 20 µM (inactive)
CCOC(=O)C1CCN(C(=O)CC(c2cccc(C(F)(F)F)c2)c2c[nH]c3c(CC)cccc23)CC1 (centres undefined)	> 20 µM (inactive)
CC1(C)CC(=O)C2C(=Nc3[nH]c(=S)[nH]c(=O)c3C2c2ccc3c(c2)OCO3)C1 (centres undefined)	> 20 µM (inactive)
CN(C)c1ccc(/C=C2/SC(=S)N(CC(=O)O)C2=O)cc1	6.89 µM
CN1C(=S)N(C2CCCCC2)C(=O)/C1=C\c1ccc2c(c1)OCO2	> 20 µM (inactive)
O=c1[nH]c(SCCO)nc2sc3c(c12)CCCC3	> 20 µM (inactive)
COc1cccc(CNC2CC2)c1OCc1nc(CO)cs1	> 20 µM (inactive)
COc1cc(C(=O)N2CCOC(c3ccccc3)C2)cc(OC)c1C (centres undefined)	> 20 µM (inactive)
